{"source": "patent US20120039796A1", "about": "“Novel method for creating, suspending and stabilizing electronically modified oxygen derivatives, along with creating, suspending and stabilizing electronically modified reaction intermediates, in a bio compatible fluorocarbon suspension, for the purpose of inducing a cascading immune response in …” (priority 2010, published 2012)", "key": {"cancer cell cultures": {"tested_on": "cancer cell cultures", "details": "cited from earlier work"}, "TrxR": {"target": "T1, TrxR (Homo sapiens, UniProt Q16881)", "T1 sequence (Q16881 151-649 limits assumed)": "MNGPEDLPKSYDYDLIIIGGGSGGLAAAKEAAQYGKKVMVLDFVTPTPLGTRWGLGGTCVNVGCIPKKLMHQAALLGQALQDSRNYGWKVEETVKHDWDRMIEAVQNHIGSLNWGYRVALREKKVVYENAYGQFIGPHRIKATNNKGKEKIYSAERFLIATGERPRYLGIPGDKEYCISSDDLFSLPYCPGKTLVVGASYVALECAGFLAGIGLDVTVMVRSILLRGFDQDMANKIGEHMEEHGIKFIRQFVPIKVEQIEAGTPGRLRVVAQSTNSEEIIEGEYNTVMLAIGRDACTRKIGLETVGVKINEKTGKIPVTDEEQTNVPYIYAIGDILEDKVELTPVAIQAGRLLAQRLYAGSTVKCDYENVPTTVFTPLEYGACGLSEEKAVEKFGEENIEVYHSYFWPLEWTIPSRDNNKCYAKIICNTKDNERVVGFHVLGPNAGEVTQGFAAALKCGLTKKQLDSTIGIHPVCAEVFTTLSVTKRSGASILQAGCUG", "details": "cited from earlier work"}, "[1]": {"details": "cited from earlier work"}, "[2]": {"test": "Stability of ozone in Fluorodecalin stored frozen at -50 C for 30 days, absorbance at 260 nm", "type": "physicochemical", "method": "(§1) After the ten hours expired, the spectrometer was quickly restarted for another 10 hours, were after the first 4 hours and 20 min in the second run is where the sample reached its half life. Once the 20 hours expired, the ABS reading was 0.082 were it took another 10 hours for Ozone too fully decay.\nAfter 30 days, the sample that was placed in the freezer was removed out of the freezer, with in 5 min the sample was completely thawed, which then a 0.01 ml sample was quickly placed it into the spectrometer were 3 consecutive single non timed scans were taken, with an average highest ABS reading of 0.688."}, "[3]": {"test": "Decay of ozone bubbled into distilled water, absorbance at 260 nm", "type": "physicochemical", "method": "15 ml of distilled h20 was used to bubble a mixture of ozone/oxygen through the sample for 30 min in a glass bubbler using a custom made proton exchange membrane ozone machine, which then 0.01 ml sample was quickly placed in a hatch DR 4000 u spectrometer, the machine was zeroed before the sample was placed in, also the absorbance wave length was set for 260 nm, the detection absorbance band of ozone, initial results at the peak were 0.590 ABS, but quickly decayed and after 20 min the ozone present in the sample was completely gone. This is the main problem with modem ozone therapy, the sample disappears with a predictable results extremely fast decay rate with in 20 min, and there is not enough of a concentration left to make a therapeutic difference, especially for burns, ulcerations, tendon injections."}, "[4]": {"details": "cited from earlier work", "remark": "listed apart in the source"}, "[5]": {"test": "Stability of ozone in 95% pure Fluorodecalin (C10F18), non-frozen, continuous absorbance at 260 nm", "type": "physicochemical", "method": "as §1\nIn the first PFC experiment, the ozone was stable within the PFC matrix for over 5 hours without any appreciable decay, after 5 hours the sample started to deviate and when the 10 hours mark was reached, the reading was around 0.600 ABS, in the last 5 hours of the run is when the sample lost 0.09 ABS, this was excellent result. In the second part of the experiment is where the sample decay accelerated. […] It should be noted the sample of PFC was 95% pure, and was the only purity I could attain at the time for the experiment and due to time constraints another sample could not have been attained. It should also be noted when the sample was finally removed from the machine for clean up, about 60 hours later after the initial experiment, half the sample evaporated. […] The utility of this patent is self evident; this invention solves the problems that plagued modern ozone therapy for the last 100 years."}}, "data": [{"compound": "O=CC[C@@H](O)[C@H](O)[C@H](O)CO", "note": "[Example 2-DG, 2-Deoxy-D-glucose]", "values": [{"measurement": "apoptosis", "setting": "cancer cell cultures; by glucose deprivation", "value": "induces apoptosis"}, {"measurement": "effect on cell growth", "setting": "cancer cell cultures", "value": "hampers cell growth"}]}, {"compound": "O=c1c(O)c(-c2cc(O)c(O)c(O)c2)oc2cc(O)cc(O)c12", "note": "[myricetin]", "values": [{"measurement": "inhibitory effect on TrxR", "setting": "TrxR", "value": "NADPH-, concentration-, and time-dependent inhibitory effect"}]}, {"compound": "O=O", "note": "[oxygen]", "values": [{"measurement": "solubility in PFC liquids", "setting": "[1]; PFC liquids for biomedical applications, 37° C., 1 atm", "value": "40-50 vol. %"}, {"measurement": "solubility in water", "setting": "[1]; water, 37° C., 1 atm", "value": 2.5, "unit": "vol. %"}]}, {"compound": "O=[O+][O-]", "note": "[ozone]", "values": [{"measurement": "amount dissolved in perfluorodecalin relative to oxygen", "setting": "[1]; at stp", "value": 13, "unit": "times"}, {"measurement": "stability in the frozen state", "setting": "[2]; 30 days at -50 C", "value": "fully stabilized"}, {"measurement": "average highest ABS reading after storage", "setting": "[2]; 30 days in freezer at -50 C, thawed, 3 scans", "value": 0.688, "unit": "ABS"}, {"measurement": "time after which ozone in the sample was completely gone", "setting": "[3]; distilled h20", "value": 20, "unit": "min"}, {"measurement": "initial absorbance at the peak", "setting": "[3]; ozone/oxygen bubbled 30 min through distilled h20, 260 nm", "value": 0.590, "unit": "ABS"}, {"measurement": "time stable in air at -50 degrees C", "setting": "[4]; air, -50 degrees C", "value": "about 3 months"}, {"measurement": "half-life in air", "setting": "[4]; air", "value": 12, "unit": "h"}, {"measurement": "half-life in saline", "setting": "[4]; saline", "value": "less than 20 min"}, {"measurement": "half-life in water", "setting": "[4]; watery solution", "value": "about 20 minutes"}, {"measurement": "initial absorbance at the highest peak", "setting": "[5]; 20/80 ozone/oxygen bubbled 20 min in Fluorodecalin, 260 nm", "value": "around 0.690 ABS"}, {"measurement": "absorbance at the 10 hours mark", "setting": "[5]; Fluorodecalin, non-frozen", "value": "around 0.600 ABS"}, {"measurement": "absorbance once 20 hours expired", "setting": "[5]; Fluorodecalin, non-frozen", "value": 0.082, "unit": "ABS"}, {"measurement": "further time for ozone to fully decay after the 20 hours", "setting": "[5]; Fluorodecalin, non-frozen", "value": 10, "unit": "h"}, {"measurement": "deviation in ABS over the first 10 hours", "setting": "[5]; Fluorodecalin, non-frozen, first 10 hour run", "value": 0.09, "unit": "ABS"}]}, {"compound": "FC1(F)C(F)(F)C(F)(F)C2(F)C(F)(F)C(F)(F)C(F)(F)C(F)(F)C2(F)C1(F)F", "note": "(centres unmarked) [perfluorodecalin]", "values": [{"measurement": "volume of oxygen dissolved by 100 ml", "setting": "[1]; 100 ml perfluorodecalin at 25° C., oxygen at STP", "value": 49, "unit": "mL"}]}, {"compound": "O=c1c(O)c(-c2ccc(O)c(O)c2)oc2cc(O)cc(O)c12", "note": "[quercetin]", "values": [{"measurement": "inhibitory effect on TrxR", "setting": "TrxR", "value": "NADPH-, concentration-, and time-dependent inhibitory effect"}]}, {"compound": "O=C1c2c(O)cc(O)cc2O[C@H](c2ccc(O)c(O)c2)[C@H]1O", "note": "[taxifolin]", "values": [{"measurement": "inhibitory effect on TrxR", "setting": "TrxR", "value": "NADPH-, concentration-, and time-dependent inhibitory effect"}]}, {"compound": "catechin", "values": [{"measurement": "inhibitory effect on TrxR", "setting": "TrxR", "value": "NADPH-, concentration-, and time-dependent inhibitory effect"}]}]}
